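The concentration for 50% growth inhibition is given as GI50. TGI is the concentration that stops growth completely.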
Key:
Assay in all cases: NCI tumour cell line growth inhibition, 384-well format
KM12 colon = tested on: KM12 colon
SK-MEL-5 melanoma = tested on: SK-MEL-5 melanoma
HS 578T breast = tested on: HS 578T breast
HCT-15 colon = tested on: HCT-15 colon
PC-3 prostate = tested on: PC-3 prostate
HOP-62 NSCLC = tested on: HOP-62 NSCLC
RPMI-8226 leukemia = tested on: RPMI-8226 leukemia
RXF 393 renal = tested on: RXF 393 renal
A498 renal = tested on: A498 renal
SK-OV-3 ovarian = tested on: SK-OV-3 ovarian
NCI-H322M lung = tested on: NCI-H322M lung
IGROV1 ovarian = tested on: IGROV1 ovarian
BT-549 breast = tested on: BT-549 breast
NCI-H460 NSCLC = tested on: NCI-H460 NSCLC
SNB-19 CNS = tested on: SNB-19 CNS
LOX IMVI melanoma = tested on: LOX IMVI melanoma
HOP-92 NSCLC = tested on: HOP-92 NSCLC
DU-145 prostate = tested on: DU-145 prostate
MCF7 breast = tested on: MCF7 breast
HCC-2998 colon = tested on: HCC-2998 colon
NCI-H522 lung = tested on: NCI-H522 lung
MDA-MB-435 melanoma = tested on: MDA-MB-435 melanoma
UACC-257 melanoma = tested on: UACC-257 melanoma
SR leukemia = tested on: SR leukemia
MALME-3M melanoma = tested on: MALME-3M melanoma
OVCAR-4 ovarian = tested on: OVCAR-4 ovarian
A549 NSCLC = tested on: A549 NSCLC
OVCAR-3 ovarian = tested on: OVCAR-3 ovarian
M14 melanoma = tested on: M14 melanoma
NCI/ADR-RES ovarian = tested on: NCI/ADR-RES ovarian
MOLT-4 leukemia = tested on: MOLT-4 leukemia
T-47D breast = tested on: T-47D breast
CAKI-1 renal = tested on: CAKI-1 renal
HCT-116 colon = tested on: HCT-116 colon
UACC-62 melanoma = tested on: UACC-62 melanoma
SN12C renal = tested on: SN12C renal
SF-295 CNS = tested on: SF-295 CNS
SK-MEL-28 melanoma = tested on: SK-MEL-28 melanoma
HT29 colon = tested on: HT29 colon
COLO 205 colon = tested on: COLO 205 colon
MDA-MB-468 breast = tested on: MDA-MB-468 breast
MDA-MB-231 breast = tested on: MDA-MB-231 breast
TK-10 renal = tested on: TK-10 renal
NCI-H226 lung = tested on: NCI-H226 lung
EKVX NSCLC = tested on: EKVX NSCLC
U251 glioblastoma = tested on: U251 glioblastoma
OVCAR-5 ovarian = tested on: OVCAR-5 ovarian
SF-268 CNS = tested on: SF-268 CNS
SNB-75 CNS = tested on: SNB-75 CNS
HL-60(TB) leukemia = tested on: HL-60(TB) leukemia
SF-539 CNS = tested on: SF-539 CNS
NCI-H23 lung = tested on: NCI-H23 lung
ACHN renal = tested on: ACHN renal
OVCAR-8 ovarian = tested on: OVCAR-8 ovarian

What does the source list for CCc1c[nH]c2ncnc(N3CC[C@](N)(CNC(=O)c4ccc(F)cc4F)C3)c12?
GI50 (KM12 colon): 0.959 µM; TGI (KM12 colon): > 100 µM; GI50 (SK-MEL-5 melanoma): 12.9 µM; TGI (SK-MEL-5 melanoma): 28.9 µM; GI50 (HS 578T breast): 2.53 µM; TGI (HS 578T breast): 95.3 µM; GI50 (HCT-15 colon): 5.47 µM; TGI (HCT-15 colon): > 100 µM; GI50 (PC-3 prostate): 0.446 µM; TGI (PC-3 prostate): 21.8 µM; GI50 (HOP-62 NSCLC): 6.34 µM; TGI (HOP-62 NSCLC): 82.3 µM; GI50 (RPMI-8226 leukemia): 3.38 µM; TGI (RPMI-8226 leukemia): 30.2 µM; GI50 (RXF 393 renal): 3.34 µM; TGI (RXF 393 renal): > 100 µM; GI50 (A498 renal): 0.136 µM; TGI (A498 renal): 2.09 µM; GI50 (SK-OV-3 ovarian): 0.892 µM; TGI (SK-OV-3 ovarian): > 100 µM; GI50 (NCI-H322M lung): 7.12 µM; TGI (NCI-H322M lung): > 100 µM; GI50 (IGROV1 ovarian): 0.149 µM; TGI (IGROV1 ovarian): 1.71 µM; GI50 (BT-549 breast): 1.27 µM; TGI (BT-549 breast): 18.4 µM; GI50 (NCI-H460 NSCLC): 0.536 µM; TGI (NCI-H460 NSCLC): 20.2 µM; GI50 (SNB-19 CNS): 3.49 µM; TGI (SNB-19 CNS): > 100 µM; GI50 (LOX IMVI melanoma): 18.8 µM; TGI (LOX IMVI melanoma): > 100 µM; GI50 (HOP-92 NSCLC): 29.6 µM; TGI (HOP-92 NSCLC): > 100 µM; GI50 (DU-145 prostate): 6.69 µM; TGI (DU-145 prostate): > 100 µM; GI50 (MCF7 breast): 0.375 µM; TGI (MCF7 breast): > 100 µM; GI50 (HCC-2998 colon): 3.13 µM; TGI (HCC-2998 colon): 88 µM; GI50 (NCI-H522 lung): 11 µM; TGI (NCI-H522 lung): 35.8 µM; GI50 (MDA-MB-435 melanoma): 15.4 µM; TGI (MDA-MB-435 melanoma): 73.4 µM; GI50 (UACC-257 melanoma): 7.7 µM; TGI (UACC-257 melanoma): 31.1 µM; GI50 (SR leukemia): 0.0603 µM; TGI (SR leukemia): 1.98 µM; GI50 (MALME-3M melanoma): 8.62 µM; TGI (MALME-3M melanoma): 28.6 µM; GI50 (OVCAR-4 ovarian): 32 µM; TGI (OVCAR-4 ovarian): > 100 µM; GI50 (A549 NSCLC): 10.8 µM; TGI (A549 NSCLC): > 100 µM; GI50 (OVCAR-3 ovarian): 8.07 µM; TGI (OVCAR-3 ovarian): > 100 µM; GI50 (M14 melanoma): 14.4 µM; TGI (M14 melanoma): > 100 µM; GI50 (NCI/ADR-RES ovarian): 12.3 µM; TGI (NCI/ADR-RES ovarian): > 100 µM; GI50 (MOLT-4 leukemia): 0.237 µM; TGI (MOLT-4 leukemia): 1.76 µM; GI50 (T-47D breast): 0.343 µM; TGI (T-47D breast): > 100 µM; GI50 (CAKI-1 renal): 5.18 µM; TGI (CAKI-1 renal): > 100 µM; GI50 (HCT-116 colon): 6.21 µM; TGI (HCT-116 colon): > 100 µM; GI50 (UACC-62 melanoma): 4.26 µM; TGI (UACC-62 melanoma): 25.1 µM; GI50 (SN12C renal): 7.5 µM; TGI (SN12C renal): > 100 µM; GI50 (SF-295 CNS): 1.95 µM; TGI (SF-295 CNS): > 100 µM; GI50 (SK-MEL-28 melanoma): 9.04 µM; TGI (SK-MEL-28 melanoma): > 100 µM; GI50 (HT29 colon): 3.98 µM; TGI (HT29 colon): > 100 µM; GI50 (COLO 205 colon): 4.95 µM; TGI (COLO 205 colon): 28.6 µM; GI50 (MDA-MB-468 breast): 0.454 µM; TGI (MDA-MB-468 breast): 18.9 µM; GI50 (MDA-MB-231 breast): 68.8 µM; TGI (MDA-MB-231 breast): > 100 µM; GI50 (TK-10 renal): 1.26 µM; TGI (TK-10 renal): 45.3 µM; GI50 (NCI-H226 lung): 9.86 µM; TGI (NCI-H226 lung): > 100 µM; GI50 (EKVX NSCLC): 7.28 µM; TGI (EKVX NSCLC): 46.2 µM; GI50 (U251 glioblastoma): 2.79 µM; TGI (U251 glioblastoma): > 100 µM; GI50 (OVCAR-5 ovarian): 4.4 µM; TGI (OVCAR-5 ovarian): 55.8 µM; GI50 (SF-268 CNS): > 100 µM; TGI (SF-268 CNS): > 100 µM; GI50 (SNB-75 CNS): 0.626 µM; TGI (SNB-75 CNS): > 100 µM; GI50 (HL-60(TB) leukemia): 10.4 µM; TGI (HL-60(TB) leukemia): 23.5 µM; GI50 (SF-539 CNS): 0.442 µM; TGI (SF-539 CNS): > 100 µM; GI50 (NCI-H23 lung): 13.8 µM; TGI (NCI-H23 lung): > 100 µM; GI50 (ACHN renal): 4.85 µM; TGI (ACHN renal): > 100 µM; GI50 (OVCAR-8 ovarian): 15 µM; TGI (OVCAR-8 ovarian): > 100 µM

From PubChem BioAssay (NCI)
